Reference: the CheMixHub ionic liquid set

Experiment: xn = mol fraction of the nth substance listed

[Cl-].c1ccc(C[P+](c2ccccc2)(c2ccccc2)c2ccccc2)cc1 + OCC(O)CO
101 kPa, x2 = 0.9412
Conditions | electrical conductivity [S/m] | viscosity [mPa·s]
298.1 K | 0.006977 | –
307.07 K | – | 654
322.36 K | – | 238
322.96 K | 0.03314 | –
332.98 K | 0.04535 | –
338.06 K | 0.05407 | –
343.13 K | 0.0593 | –
348.08 K | 0.075 | –

[Cl-].c1ccc(C[P+](c2ccccc2)(c2ccccc2)c2ccccc2)cc1 + OCCO
Conditions | electrical conductivity [S/m] | viscosity [mPa·s]
293.15 K, 101 kPa, x1 = 0.083 | 0.191 | 60.6
303.15 K, 101 kPa, x1 = 0.08333 | – | 68.3
313.15 K, 101 kPa, x1 = 0.083 | 0.298 | 32.2
313.15 K, 101 kPa, x1 = 0.08333 | – | 54.2
323.15 K, 100 kPa, x1 = 0.0833 | – | 38.5
323.15 K, 101 kPa, x1 = 0.08333 | – | 41.8
333.15 K, 101 kPa, x1 = 0.08333 | – | 33
338.15 K, 101.3 kPa, x2 = 0.75 | 0.02 | 86
343.15 K, 100 kPa, x1 = 0.0833 | – | 24.6
343.15 K, 101 kPa, x1 = 0.08333 | – | 24.2
353.15 K, 101 kPa, x1 = 0.08333 | – | 20.7

[Cl-].c1ccc(C[P+](c2ccccc2)(c2ccccc2)c2ccccc2)cc1 + OCCOCCO
101 kPa, x2 = 0.875
Conditions | electrical conductivity [S/m] | viscosity [mPa·s]
313.15 K | 0.0935 | 64.2
353.15 K | 0.212 | 17.1

CCCC[N+](CCCC)(CCCC)CCCC.[Cl-] + OCCOCCOCCO
Conditions | electrical conductivity, 293.15 K [S/m] | electrical conductivity, 303.15 K [S/m] | electrical conductivity, 313.15 K [S/m] | electrical conductivity, 323.15 K [S/m] | electrical conductivity, 333.15 K [S/m] | viscosity, 293.15 K [mPa·s] | viscosity, 303.15 K [mPa·s] | viscosity, 313.15 K [mPa·s] | viscosity, 323.15 K [mPa·s] | viscosity, 333.15 K [mPa·s]
100 kPa, x1 = 0.1667 | 0.0683 | 0.099 | 0.141 | 0.196 | 0.268 | 126 | 82.6 | 55.6 | 38.4 | 27.1
100 kPa, x1 = 0.333 | 0.049 | 0.0739 | 0.109 | 0.156 | 0.219 | 277 | 179 | 119 | 81.4 | 56.8
101 kPa, x2 = 0.25 | – | – | – | – | – | – | – | – | 910 | –

CC[n+]1ccn(C)c1.[Cl-] + OCCOCCOCCOCCO
viscosity [mPa·s], 101.3 kPa
Conditions | 298.15 K | 303.15 K | 313.15 K | 323.15 K | 333.15 K
x2 = 0.3333 | 360 | 266 | 168 | 115 | 83
x2 = 0.5 | 138 | 114 | 83.8 | 62.7 | 48.7

CCCC[N+](CCCC)(CCCC)CCCC.[Cl-] + OC[C@@H](O)[C@@H](O)[C@H](O)[C@@H](O)CO + O
100 kPa, x1 = 0.1428, x2 = 0.1428
Conditions | electrical conductivity [S/m] | viscosity [mPa·s]
293.15 K | 0.121 | 390
303.15 K | 0.189 | 201
313.15 K | 0.285 | 107
323.15 K | 0.42 | 59.8
333.15 K | 0.605 | 34.5

CCCC[N+](CCCC)(CCCC)CCCC.[Cl-] + Oc1ccccc1
Conditions | viscosity [mPa·s]
323.15 K, 100 kPa, x1 = 0.167 | 37.2

CCCC[n+]1ccn(C)c1.[Br-] + [Cl-].[Li+] + O
298.15 K, 100 kPa
Conditions | viscosity [mPa·s]
x2 = 0, x3 = 0.9487 | 2.21
x2 = 0.008492, x3 = 0.9402 | 2.41
x2 = 0.01695, x3 = 0.9318 | 2.56
x2 = 0.02496, x3 = 0.9237 | 2.73
x2 = 0.02656, x3 = 0.9221 | 2.81
x2 = 0.03322, x3 = 0.9155 | 3
x2 = 0.0408, x3 = 0.9079 | 3.21
